Reference: ChEMBL document CHEMBL1201862, “PubChem BioAssay data set” (2004)
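Dose response: 5 concentrations. Exposure: 48 h. Format: 96-well plates. Endpoint: linear interpolation; highest concentration if not reached. GI50 marks 50% less growth.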 Active and inactive are the calls of the source. Cut-off read from the data, not from the text of the source: active = GI50 up to about 1.1 µM and inactive = higher.

Key:
Assay in all cases: DTP human tumour cell line panel, 48 h
HL-60 = test system: HL-60
OVCAR-8 = test system: OVCAR-8
RPMI-8226 = test system: RPMI-8226
SNB-75 = test system: SNB-75
SR = test system: SR
SF-539 = test system: SF-539
HCT-15 = test system: HCT-15
786-0 = test system: 786-0
NCI-H23 = test system: NCI-H23
HCC 2998 = test system: HCC 2998
M19-MEL = test system: M19-MEL
CAKI-1 = test system: CAKI-1
HOP-62 = test system: HOP-62
U-251 = test system: U-251
SK-OV-3 = test system: SK-OV-3
SN12C = test system: SN12C
UACC-62 = test system: UACC-62
SNB-78 = test system: SNB-78
SK-MEL-28 = test system: SK-MEL-28
ACHN = test system: ACHN
A549 = test system: A549
RXF 393 = test system: RXF 393
SK-MEL-2 = test system: SK-MEL-2
LOX IMVI = test system: LOX IMVI
XF498 = test system: XF498
EKVX = test system: EKVX
DMS-114 = test system: DMS-114
HT-29 = test system: HT-29
SF-295 = test system: SF-295
M14 = test system: M14
KM12 = test system: KM12
SF-268 = test system: SF-268
MOLT-4 = test system: MOLT-4
Malme-3M = test system: Malme-3M
RXF 631 = test system: RXF 631
SK-MEL-5 = test system: SK-MEL-5
OVCAR-3 = test system: OVCAR-3
UACC-257 = test system: UACC-257
NCI-H460 = test system: NCI-H460
HCT-116 = test system: HCT-116
NCI-H226 = test system: NCI-H226
UO-31 = test system: UO-31
K562 = test system: K562
KM-20L2 = test system: KM-20L2
OVCAR-5 = test system: OVCAR-5
SNB-19 = test system: SNB-19
OVCAR-4 = test system: OVCAR-4
CCRF-CEM = test system: CCRF-CEM
NCI-H522 = test system: NCI-H522
COLO 205 = test system: COLO 205
A498 = test system: A498
TK-10 = test system: TK-10
LXFL 529 = test system: LXFL 529
DLD-1 = test system: DLD-1
DMS-273 = test system: DMS-273
IGROV-1 = test system: IGROV-1
HOP-18 = test system: HOP-18
SW-620 = test system: SW-620
HOP-92 = test system: HOP-92

Cc1cc(NCCCCCCNc2cc(C)nc3ccc(Cl)cc23)c2cc(Cl)ccc2n1
GI50 (HL-60): 7.4 µM (inactive) | GI50 (OVCAR-8): 18.5 µM (inactive) | GI50 (RPMI-8226): 47.4 µM (inactive) | GI50 (SNB-75): 17.4 µM (inactive) | GI50 (SR): 2.09 µM (inactive) | GI50 (SF-539): 15.9 µM (inactive) | GI50 (HCT-15): 18 µM | GI50 (786-0): 17.4 µM (inactive) | GI50 (NCI-H23): 15 µM (inactive) | GI50 (HCC 2998): 16.4 µM (inactive) | GI50 (M19-MEL): 21.4 µM (inactive) | GI50 (CAKI-1): 33 µM (inactive) | GI50 (HOP-62): 75.5 µM (inactive) | GI50 (U-251): 16.9 µM (inactive) | GI50 (SK-OV-3): > 100 µM (inactive) | GI50 (SN12C): 22 µM (inactive) | GI50 (UACC-62): 19.5 µM (inactive) | GI50 (SNB-78): 22.7 µM (inactive) | GI50 (SK-MEL-28): 17.2 µM (inactive) | GI50 (ACHN): 33 µM (inactive) | GI50 (A549): 20.8 µM (inactive) | GI50 (RXF 393): 16.1 µM (inactive) | GI50 (SK-MEL-2): 26.2 µM (inactive) | GI50 (LOX IMVI): 14.9 µM (inactive) | GI50 (XF498): 18.1 µM (inactive) | GI50 (EKVX): 15.8 µM (inactive) | GI50 (DMS-114): 18.9 µM (inactive) | GI50 (HT-29): 15.2 µM (inactive) | GI50 (SF-295): 16.6 µM (inactive) | GI50 (M14): > 100 µM (inactive) | GI50 (KM12): 17.2 µM (inactive) | GI50 (SF-268): 14.7 µM (inactive) | GI50 (MOLT-4): 27.7 µM (inactive) | GI50 (Malme-3M): 28.1 µM (inactive) | GI50 (RXF 631): > 100 µM (inactive) | GI50 (SK-MEL-5): 18.3 µM (inactive) | GI50 (OVCAR-3): 18 µM (inactive) | GI50 (UACC-257): 20 µM (inactive) | GI50 (NCI-H460): 14.8 µM (inactive) | GI50 (HCT-116): 14.7 µM (inactive) | GI50 (NCI-H226): > 100 µM (inactive) | GI50 (UO-31): 23.5 µM (inactive) | GI50 (K562): 2.49 µM (inactive) | GI50 (KM-20L2): 15.8 µM (inactive) | GI50 (OVCAR-5): 19.7 µM (inactive) | GI50 (SNB-19): 25.9 µM (inactive) | GI50 (OVCAR-4): 20 µM (inactive) | GI50 (CCRF-CEM): 3.63 µM (inactive) | GI50 (NCI-H522): 17 µM (inactive) | GI50 (COLO 205): 18.3 µM (inactive) | GI50 (A498): > 100 µM (inactive) | GI50 (TK-10): 27 µM (inactive) | GI50 (LXFL 529): > 100 µM (inactive) | GI50 (DLD-1): 16.8 µM (inactive) | GI50 (DMS-273): 20.4 µM (inactive)

COc1cccc(NC(=O)C(=O)C(C(C)=O)c2nc3ccc(Cl)cc3nc2O)c1 (stereo unspecified)
GI50 (HL-60): > 100 µM (inactive) | GI50 (OVCAR-8): > 100 µM (inactive) | GI50 (IGROV-1): > 100 µM (inactive) | GI50 (RPMI-8226): > 100 µM (inactive) | GI50 (SNB-75): 54.7 µM (inactive) | GI50 (SF-539): > 100 µM (inactive) | GI50 (HCT-15): > 100 µM | GI50 (786-0): > 100 µM (inactive) | GI50 (HOP-18): > 100 µM (inactive) | GI50 (NCI-H23): > 100 µM (inactive) | GI50 (HCC 2998): > 100 µM (inactive) | GI50 (M19-MEL): > 100 µM (inactive) | GI50 (CAKI-1): > 100 µM (inactive) | GI50 (HOP-62): > 100 µM (inactive) | GI50 (U-251): > 100 µM (inactive) | GI50 (SK-OV-3): > 100 µM (inactive) | GI50 (SN12C): > 100 µM (inactive) | GI50 (UACC-62): > 100 µM (inactive) | GI50 (SNB-78): > 100 µM (inactive) | GI50 (SK-MEL-28): > 100 µM (inactive) | GI50 (ACHN): > 100 µM (inactive) | GI50 (A549): > 100 µM (inactive) | GI50 (SW-620): > 100 µM (inactive) | GI50 (RXF 393): > 100 µM (inactive) | GI50 (SK-MEL-2): > 100 µM (inactive) | GI50 (LOX IMVI): > 100 µM (inactive) | GI50 (EKVX): > 100 µM (inactive) | GI50 (HOP-92): > 100 µM (inactive) | GI50 (DMS-114): > 100 µM (inactive) | GI50 (HT-29): > 100 µM (inactive) | GI50 (SF-295): > 100 µM (inactive) | GI50 (M14): > 100 µM (inactive) | GI50 (KM12): > 100 µM (inactive) | GI50 (SF-268): > 100 µM (inactive) | GI50 (MOLT-4): > 100 µM (inactive) | GI50 (Malme-3M): > 100 µM (inactive) | GI50 (RXF 631): > 100 µM (inactive) | GI50 (SK-MEL-5): > 100 µM (inactive) | GI50 (OVCAR-3): > 100 µM (inactive) | GI50 (UACC-257): > 100 µM (inactive) | GI50 (NCI-H460): > 100 µM (inactive) | GI50 (HCT-116): > 100 µM (inactive) | GI50 (NCI-H226): > 100 µM (inactive) | GI50 (UO-31): > 100 µM (inactive) | GI50 (K562): > 100 µM (inactive) | GI50 (KM-20L2): > 100 µM (inactive) | GI50 (OVCAR-5): > 100 µM (inactive) | GI50 (SNB-19): > 100 µM (inactive) | GI50 (OVCAR-4): > 100 µM (inactive) | GI50 (CCRF-CEM): > 100 µM (inactive) | GI50 (COLO 205): > 100 µM (inactive) | GI50 (A498): > 100 µM (inactive) | GI50 (TK-10): > 100 µM (inactive) | GI50 (LXFL 529): > 100 µM (inactive) | GI50 (DLD-1): > 100 µM (inactive) | GI50 (DMS-273): > 100 µM (inactive)
